Measured values: ChEMBL document CHEMBL1156052, “Discovery of 1-[4-(3-chlorophenylamino)-1-methyl-1H-pyrrolo[3,2-c]pyridin-7-yl]-1-morpholin-4-ylmethanone (GSK554418A), a brain penetrant 5-azaindole CB2 agonist for the treatment of chronic pain” (J Med Chem, 2009)
≈ marks a conversion by molar mass, not a printed value. Calls of active or inactive are those of the source. The calls are words filed in the database; no cut-off is given here.

Tests used:
Homo sapiens = species: Homo sapiens; test: Selectivity ratio of EC50 for human recombinant cannabinoid CB1 receptor to EC50 for human recombinant cannabinoid CB2 receptor
[1] = Intrinsic clearance in human liver microsomes; type: ADME, Microsome
Cannabinoid receptor 1 [2] = target: T1, Cannabinoid receptor 1 (Homo sapiens, UniProt P21554); test: Agonist activity at human recombinant cannabinoid CB1 receptor expressed in MMY23 Saccharomyces cerevisiae assessed as degradation of FDGlu to fluorescein after 24 hrs by spectrofluorimetry; type: functional
T1 sequence (P21554 whole entry): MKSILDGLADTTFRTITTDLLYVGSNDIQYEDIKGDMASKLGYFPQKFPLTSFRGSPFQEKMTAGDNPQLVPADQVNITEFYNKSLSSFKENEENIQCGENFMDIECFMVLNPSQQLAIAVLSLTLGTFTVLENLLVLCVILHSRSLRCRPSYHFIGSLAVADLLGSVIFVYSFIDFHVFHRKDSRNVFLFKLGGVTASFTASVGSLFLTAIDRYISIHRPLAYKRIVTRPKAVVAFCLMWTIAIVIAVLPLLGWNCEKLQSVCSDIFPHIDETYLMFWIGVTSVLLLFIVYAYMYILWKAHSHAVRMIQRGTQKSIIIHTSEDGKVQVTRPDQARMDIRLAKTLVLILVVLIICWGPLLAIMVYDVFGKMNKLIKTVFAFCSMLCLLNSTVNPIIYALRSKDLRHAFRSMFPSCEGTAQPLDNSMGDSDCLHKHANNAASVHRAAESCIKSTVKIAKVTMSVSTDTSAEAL

[3] = Ratio of drug level in brain to blood in mouse; type: ADME, tissue-based
[4] = Dissociation constant, pKa of the compound; type: physicochemical
[5] = Efflux ratio of apparent permeability […] side of MDR1-expressing MDCK2 cells after 60 mins by liquid scintillation counting; type: ADME, cell-based, Canis lupus familiaris; conditions: dog, mdck-ii, 1 h
Cytochrome P450 2C9 = Cytochrome P450 2C9 (Homo sapiens, UniProt P11712); test: Inhibition of CYP2C9; type: ADME
[6] = Intrinsic clearance in rat liver microsomes; type: ADME, Microsome
Rattus norvegicus [7] = test: Antihyperalgesic activity in po dosed complete Freund's adjuvant rat model of inflammatory pain assessed as reduction of hypersensitivity administered as single dose; type: functional
[8] = Solubility in simulated intestinal fluid at pH 5; type: physicochemical
Cytochrome P450 2D6 = Cytochrome P450 2D6 (Homo sapiens, UniProt P10635); test: Inhibition of CYP2D6; type: ADME
Chain of Cytochrome P450 2D6 (P10635 whole entry): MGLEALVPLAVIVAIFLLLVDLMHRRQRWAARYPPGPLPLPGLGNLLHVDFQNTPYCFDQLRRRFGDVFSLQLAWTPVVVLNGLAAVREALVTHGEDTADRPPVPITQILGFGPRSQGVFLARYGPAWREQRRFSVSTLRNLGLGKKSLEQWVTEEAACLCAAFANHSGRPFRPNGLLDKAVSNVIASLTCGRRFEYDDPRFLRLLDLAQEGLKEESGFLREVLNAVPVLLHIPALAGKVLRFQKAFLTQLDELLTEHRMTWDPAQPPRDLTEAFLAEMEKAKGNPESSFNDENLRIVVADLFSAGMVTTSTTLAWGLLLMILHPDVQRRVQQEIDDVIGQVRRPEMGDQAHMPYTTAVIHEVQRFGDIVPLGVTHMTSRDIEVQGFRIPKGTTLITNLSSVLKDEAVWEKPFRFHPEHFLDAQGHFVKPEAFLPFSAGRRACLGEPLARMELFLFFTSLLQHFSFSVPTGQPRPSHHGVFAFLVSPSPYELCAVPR

Cannabinoid receptor 1 [9] = target: T1, Cannabinoid receptor 1; test: Agonist activity at human recombinant cannabinoid CB1 receptor expressed in MMY23 Saccharomyces cerevisiae assessed as degradation of FDGlu to fluorescein after 24 hrs by spectrofluorimetry relative to HU210; type: functional
Cannabinoid receptor 2 [10] = target: T2, Cannabinoid receptor 2 (Homo sapiens, UniProt P34972); test: Agonist activity at human recombinant cannabinoid CB2 receptor expressed in MMY23 Saccharomyces cerevisiae assessed as degradation of FDGlu to fluorescein after 24 hrs by spectrofluorimetry; type: functional
T2 sequence (P34972 whole entry): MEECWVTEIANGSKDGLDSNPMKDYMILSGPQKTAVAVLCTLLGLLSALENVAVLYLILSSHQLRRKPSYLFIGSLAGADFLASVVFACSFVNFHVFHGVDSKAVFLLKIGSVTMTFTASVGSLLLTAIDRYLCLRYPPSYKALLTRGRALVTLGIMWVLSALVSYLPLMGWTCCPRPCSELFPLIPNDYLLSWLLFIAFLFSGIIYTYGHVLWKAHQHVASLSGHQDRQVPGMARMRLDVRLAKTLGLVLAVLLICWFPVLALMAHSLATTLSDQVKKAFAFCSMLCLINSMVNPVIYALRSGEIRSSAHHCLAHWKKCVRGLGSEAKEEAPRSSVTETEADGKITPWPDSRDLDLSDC

Cytochrome P450 2C19 = Cytochrome P450 2C19 (Homo sapiens, UniProt P33261); test: Inhibition of CYP2C19; type: ADME
Rattus norvegicus [11] = test: Analgesic activity in rat joint model of chronic pain at 1 to 10 mg/kg, po BID for 5 days; type: functional, organism-based
Cytochrome P450 3A4 = Cytochrome P450 3A4 (Homo sapiens, UniProt P08684); test: Inhibition of CYP3A4; type: ADME
Cytochrome P450 1A2 = Cytochrome P450 1A2 (Homo sapiens, UniProt P05177); test: Inhibition of CYP1A2; type: ADME
Chain of Cytochrome P450 1A2 (P05177 whole entry): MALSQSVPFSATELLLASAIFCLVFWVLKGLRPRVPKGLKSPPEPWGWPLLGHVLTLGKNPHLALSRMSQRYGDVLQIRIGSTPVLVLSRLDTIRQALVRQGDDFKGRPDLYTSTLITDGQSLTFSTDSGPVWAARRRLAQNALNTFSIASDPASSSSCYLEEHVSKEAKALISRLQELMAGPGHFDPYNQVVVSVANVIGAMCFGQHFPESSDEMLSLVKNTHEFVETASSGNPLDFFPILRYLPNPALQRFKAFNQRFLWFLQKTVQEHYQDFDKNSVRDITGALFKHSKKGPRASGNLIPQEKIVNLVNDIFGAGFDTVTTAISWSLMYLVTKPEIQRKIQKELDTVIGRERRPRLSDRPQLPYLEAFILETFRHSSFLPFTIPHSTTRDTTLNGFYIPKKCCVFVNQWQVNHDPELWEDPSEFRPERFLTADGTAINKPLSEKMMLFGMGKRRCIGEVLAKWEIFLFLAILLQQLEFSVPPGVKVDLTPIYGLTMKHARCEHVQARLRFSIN

Cannabinoid receptor 2 [12] = target: T2, Cannabinoid receptor 2; test: Agonist activity at human recombinant cannabinoid CB2 receptor expressed in MMY23 Saccharomyces cerevisiae assessed as degradation of FDGlu to fluorescein after 24 hrs by spectrofluorimetry relative to HU210; type: functional
Cannabinoid receptor 1 [13] = target: T1, Cannabinoid receptor 1; test: Agonist activity at human recombinant cannabinoid CB1 receptor expressed in MMY23 Saccharomyces cerevisiae assessed as degradation of FDGlu to fluorescein at 30 uM after 24 hrs by spectrofluorimetry; type: functional
[14] = target: Cholecystokinin receptor type A (Homo sapiens) (UniProt P32238); test: Binding affinity to human CCKA receptor at 1 uM
[15] = Drug level in rat blood at 130 mg/kg, po after 3 hrs; type: ADME, organism-based; set-up: dose 130 mg/kg, route oral; conditions: read-out: Drug uptake
[16] = Binding affinity to adrenergic alpha1 receptor at 1 uM
[17] = target: C-X-C chemokine receptor type 2 (Homo sapiens) (UniProt P25025); test: Binding affinity to human CXCR2 receptor at 1 uM
[18] = Binding affinity to GABA receptor at 1 uM
[19] = target: Type-1 angiotensin II receptor (Homo sapiens) (UniProt P30556); test: Binding affinity to human AT1 receptor at 1 uM
Chain of Type-1 angiotensin II receptor (Homo sapiens) (P30556 whole entry): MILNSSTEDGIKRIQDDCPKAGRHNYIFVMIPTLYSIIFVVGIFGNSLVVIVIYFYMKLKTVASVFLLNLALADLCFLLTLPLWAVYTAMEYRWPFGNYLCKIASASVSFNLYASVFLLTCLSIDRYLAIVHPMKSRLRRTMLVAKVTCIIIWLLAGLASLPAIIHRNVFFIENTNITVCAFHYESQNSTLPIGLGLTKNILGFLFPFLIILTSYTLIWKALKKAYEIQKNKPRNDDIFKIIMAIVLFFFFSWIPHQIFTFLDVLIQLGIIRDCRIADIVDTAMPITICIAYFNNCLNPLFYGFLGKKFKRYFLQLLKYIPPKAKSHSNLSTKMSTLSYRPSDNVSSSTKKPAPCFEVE

Rattus norvegicus [20] = test: Induction of hypothermia in rat at 130 mg/kg, po after 5 hrs; type: organism-based; set-up: dose 130 mg/kg, route oral; conditions: in vivo
[21] = target: D(2) dopamine receptor (Homo sapiens) (UniProt P14416); test: Binding affinity to human dopamine D2S receptor at 1 uM
[22] = target: Histamine H1 receptor (Homo sapiens) (UniProt P35367); test: Binding affinity to human histamine H1 receptor at 1 uM
[23] = Binding affinity to central benzodiazepine receptor at 1 uM
[24] = Drug level in rat blood at 130 mg/kg, po after 1 hr; type: ADME, organism-based; set-up: dose 130 mg/kg, route oral; conditions: read-out: Drug uptake
Cannabinoid receptor 1 [25] = target: Cannabinoid receptor 1 (Rattus norvegicus, UniProt P20272); test: Agonist activity at cannabinoid CB1 receptor at rat cerebellum by GTPgammaS binding assay; type: functional, tissue-based
[26] = target: D(1A) dopamine receptor (Homo sapiens) (UniProt P21728); test: Binding affinity to human dopamine D1 receptor at 1 uM
[27] = target: Muscarinic acetylcholine receptor M1 (Homo sapiens) (UniProt P11229); test: Binding affinity to human muscarinic M1 receptor at 1 uM
[28] = target: Histamine H2 receptor (Homo sapiens) (UniProt P25021); test: Binding affinity to human histamine H2 receptor at 1 uM
Chain of Histamine H2 receptor (Homo sapiens) (P25021 whole entry): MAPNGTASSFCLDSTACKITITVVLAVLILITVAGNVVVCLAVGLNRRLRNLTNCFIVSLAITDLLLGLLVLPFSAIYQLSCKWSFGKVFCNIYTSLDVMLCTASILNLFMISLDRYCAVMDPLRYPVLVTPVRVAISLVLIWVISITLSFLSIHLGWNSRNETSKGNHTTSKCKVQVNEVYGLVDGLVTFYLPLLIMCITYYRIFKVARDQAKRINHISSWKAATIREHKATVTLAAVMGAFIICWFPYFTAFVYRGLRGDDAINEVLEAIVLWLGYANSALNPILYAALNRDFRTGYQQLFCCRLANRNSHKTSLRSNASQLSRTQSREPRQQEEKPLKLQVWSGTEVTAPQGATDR

[29] = target: Melanocortin receptor 4 (Homo sapiens) (UniProt P32245); test: Binding affinity to human MC4 receptor at 1 uM
[30] = target: Adenosine receptor A2a (Homo sapiens) (UniProt P29274); test: Binding affinity to human adenosine A2A receptor at 1 uM
Chain of Adenosine receptor A2a (Homo sapiens) (P29274 whole entry): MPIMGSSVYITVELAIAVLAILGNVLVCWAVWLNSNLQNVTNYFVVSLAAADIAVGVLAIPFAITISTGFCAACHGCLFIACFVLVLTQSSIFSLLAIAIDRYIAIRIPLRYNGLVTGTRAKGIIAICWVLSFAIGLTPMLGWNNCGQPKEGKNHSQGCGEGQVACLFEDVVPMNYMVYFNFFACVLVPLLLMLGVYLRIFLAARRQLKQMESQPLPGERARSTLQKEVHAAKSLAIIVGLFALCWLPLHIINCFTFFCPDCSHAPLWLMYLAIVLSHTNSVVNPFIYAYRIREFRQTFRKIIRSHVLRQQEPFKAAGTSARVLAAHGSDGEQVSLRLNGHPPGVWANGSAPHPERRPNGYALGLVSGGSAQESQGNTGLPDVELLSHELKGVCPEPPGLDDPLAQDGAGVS

[31] = target: B2 bradykinin receptor (Homo sapiens) (UniProt P30411); test: Binding affinity to human bradykinin B2 receptor at 1 uM
Chain of B2 bradykinin receptor (Homo sapiens) (P30411 whole entry): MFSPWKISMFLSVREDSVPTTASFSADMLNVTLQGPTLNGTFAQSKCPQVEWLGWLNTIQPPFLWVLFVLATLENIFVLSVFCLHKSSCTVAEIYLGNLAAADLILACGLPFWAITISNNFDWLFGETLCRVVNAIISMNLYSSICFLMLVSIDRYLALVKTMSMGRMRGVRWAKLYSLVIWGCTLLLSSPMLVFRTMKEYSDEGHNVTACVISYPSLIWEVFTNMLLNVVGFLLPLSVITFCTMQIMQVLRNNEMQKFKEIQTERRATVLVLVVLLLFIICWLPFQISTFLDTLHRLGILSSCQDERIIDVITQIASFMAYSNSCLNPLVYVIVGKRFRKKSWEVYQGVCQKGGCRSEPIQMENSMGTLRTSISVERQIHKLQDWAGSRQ

[32] = target: Muscarinic acetylcholine receptor M2 (Homo sapiens) (UniProt P08172); test: Binding affinity to human muscarinic M2 receptor at 1 uM
[33] = target: Alpha-2A adrenergic receptor (Homo sapiens) (UniProt P08913); test: Binding affinity to adrenergic alpha2 receptor at 1 uM
[34] = target: Melatonin receptor type 1A (Homo sapiens) (UniProt P48039); test: Binding affinity to human ML1 receptor at 1 uM
[35] = target: Adenosine receptor A3 (Homo sapiens) (UniProt P0DMS8); test: Binding affinity to human adenosine A3 receptor at 1 uM
Chain of Adenosine receptor A3 (Homo sapiens) (P0DMS8 whole entry): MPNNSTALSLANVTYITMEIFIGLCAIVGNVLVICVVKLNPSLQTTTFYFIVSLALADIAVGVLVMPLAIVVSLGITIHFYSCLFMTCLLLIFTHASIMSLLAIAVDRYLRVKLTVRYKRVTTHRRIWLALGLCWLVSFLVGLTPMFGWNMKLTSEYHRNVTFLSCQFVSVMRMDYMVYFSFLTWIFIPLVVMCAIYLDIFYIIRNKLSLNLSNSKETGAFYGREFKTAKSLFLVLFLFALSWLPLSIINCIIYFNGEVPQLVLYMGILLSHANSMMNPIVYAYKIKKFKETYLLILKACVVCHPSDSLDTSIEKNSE

[36] = target: Muscarinic acetylcholine receptor M4 (Homo sapiens) (UniProt P08173); test: Binding affinity to human muscarinic M4 receptor at 1 uM
Chain of Muscarinic acetylcholine receptor M4 (Homo sapiens) (P08173 whole entry): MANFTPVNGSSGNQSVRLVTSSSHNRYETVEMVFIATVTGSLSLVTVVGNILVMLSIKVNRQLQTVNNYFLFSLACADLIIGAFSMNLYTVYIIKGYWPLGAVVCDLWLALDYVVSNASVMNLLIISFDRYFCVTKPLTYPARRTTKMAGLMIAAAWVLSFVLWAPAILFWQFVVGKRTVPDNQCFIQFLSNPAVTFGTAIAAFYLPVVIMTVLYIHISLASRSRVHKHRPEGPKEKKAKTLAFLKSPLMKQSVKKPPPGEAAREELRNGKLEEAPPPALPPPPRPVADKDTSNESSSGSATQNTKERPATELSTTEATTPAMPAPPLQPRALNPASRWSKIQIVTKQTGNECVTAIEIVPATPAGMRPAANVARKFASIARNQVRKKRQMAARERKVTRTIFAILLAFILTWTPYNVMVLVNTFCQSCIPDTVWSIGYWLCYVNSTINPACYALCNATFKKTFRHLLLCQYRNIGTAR

[37] = target: Adenosine receptor A1 (Homo sapiens) (UniProt P30542); test: Binding affinity to human adenosine A1 receptor at 1 uM
Chain of Adenosine receptor A1 (Homo sapiens) (P30542 whole entry): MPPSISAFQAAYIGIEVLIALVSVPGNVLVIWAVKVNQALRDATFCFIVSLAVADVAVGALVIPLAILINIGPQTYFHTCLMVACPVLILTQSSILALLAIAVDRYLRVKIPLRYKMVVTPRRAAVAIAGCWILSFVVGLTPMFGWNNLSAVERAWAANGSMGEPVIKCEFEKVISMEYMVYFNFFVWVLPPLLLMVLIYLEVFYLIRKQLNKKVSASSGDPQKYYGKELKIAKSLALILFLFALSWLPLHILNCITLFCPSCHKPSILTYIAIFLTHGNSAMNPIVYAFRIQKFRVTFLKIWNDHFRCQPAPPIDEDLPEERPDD

[38] = target: Beta-1 adrenergic receptor (Homo sapiens) (UniProt P08588); test: Binding affinity to human beta-1 adrenergic receptor at 1 uM
[39] = target: Muscarinic acetylcholine receptor M3 (Homo sapiens) (UniProt P20309); test: Binding affinity to human muscarinic M3 receptor at 1 uM
[40] = target: Galanin receptor type 2 (Homo sapiens) (UniProt O43603); test: Binding affinity to human GAL2 receptor at 1 uM
[41] = target: Endothelin-1 receptor (Homo sapiens) (UniProt P25101); test: Binding affinity to human ETA receptor at 1 uM
Chain of Endothelin-1 receptor (Homo sapiens) (P25101 whole entry): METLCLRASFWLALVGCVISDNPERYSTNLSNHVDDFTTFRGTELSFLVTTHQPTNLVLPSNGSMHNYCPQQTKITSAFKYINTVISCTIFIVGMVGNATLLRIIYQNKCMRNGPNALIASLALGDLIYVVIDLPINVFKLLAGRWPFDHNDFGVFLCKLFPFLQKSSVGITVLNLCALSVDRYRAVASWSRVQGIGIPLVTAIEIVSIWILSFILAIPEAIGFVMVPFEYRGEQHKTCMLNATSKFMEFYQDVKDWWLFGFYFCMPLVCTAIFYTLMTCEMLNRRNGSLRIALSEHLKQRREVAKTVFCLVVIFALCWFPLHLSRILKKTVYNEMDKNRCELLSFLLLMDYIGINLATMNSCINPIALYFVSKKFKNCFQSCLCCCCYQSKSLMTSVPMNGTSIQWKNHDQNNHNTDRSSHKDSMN

[42] = target: Cannabinoid receptor 1 (Rattus norvegicus) (UniProt P20272); test: Agonist activity at cannabinoid CB1 receptor at rat cerebellum by GTPgammaS binding assay relative to HU210; type: functional
[43] = target: Substance-K receptor (Homo sapiens) (UniProt P21452); test: Binding affinity to human NK2 receptor at 1 uM
Rattus norvegicus [44] = test: Induction of hypothermia in rat at 130 mg/kg, po after 1 to 3 hrs; type: organism-based; set-up: dose 130 mg/kg, route oral; conditions: in vivo
Rattus norvegicus [45] = test: Analgesic activity in rat joint model of chronic pain at 5 mg/kg, po BID for 5 days; type: functional, organism-based; set-up: dose 5 mg/kg

Cc1c[nH]c2c(Nc3cccc(Cl)c3)ncc(C(=O)N3CCOCC3)c12
Ratio EC50 (Homo sapiens): 1000
CLint scaled [1]: 1.6 mL/min/kg
EC50 (Cannabinoid receptor 1 [2]): 10 µM
Kp [3]: < 0.05
pKa [4]: 5.8
Ratio [5]: 74
IC50 (Cytochrome P450 2C9): 4.7 µM
CLint scaled [6]: 1.4 mL/min/kg
ED50 (Rattus norvegicus [7]): 0.12 mg/kg
solubility [8]: 160 µg/mL (≈ 431 µM)
IC50 (Cytochrome P450 2D6): 14 µM
Efficacy (Cannabinoid receptor 1 [9]): 74%
EC50 (Cannabinoid receptor 2 [10]): 0.011 µM
IC50 (Cytochrome P450 2C19): 29 µM
Activity (Rattus norvegicus [11]): inactive
IC50 (Cytochrome P450 3A4): 48 µM
IC50 (Cytochrome P450 1A2): 28 µM
Efficacy (Cannabinoid receptor 2 [12]): 82%

Cc1c[nH]c2c(Nc3ccccc3OC(C)C)ncc(C(=O)N3CCOCC3)c12
Ratio EC50 (Homo sapiens): > 100
EC50 (Cannabinoid receptor 1 [2]): > 30 µM
EC50 (Cannabinoid receptor 2 [10]): 0.188 µM
Activity (Cannabinoid receptor 1 [13]): inactive
Efficacy (Cannabinoid receptor 2 [12]): 73%

Cc1cn(C)c2c(Nc3cccc(Cl)c3)ncc(C(=O)N3CCOCC3)c12
EC50 (Cannabinoid receptor 1 [2]): 10 µM
Efficacy (Cannabinoid receptor 1 [9]): 45%
EC50 (Cannabinoid receptor 2 [10]): 0.654 µM
Efficacy (Cannabinoid receptor 2 [12]): 47%

Cc1c[nH]c2c(Nc3cccc(Cl)c3)ncc(C(=O)N3CCCC3)c12
EC50 (Cannabinoid receptor 1 [2]): > 30 µM
EC50 (Cannabinoid receptor 2 [10]): 0.153 µM
Efficacy (Cannabinoid receptor 2 [12]): 68%

Cc1c[nH]c2c(Nc3cccc(Cl)c3)ncc(C(=O)N3CCCCCC3)c12
EC50 (Cannabinoid receptor 1 [2]): > 30 µM
EC50 (Cannabinoid receptor 2 [10]): 0.107 µM
Efficacy (Cannabinoid receptor 2 [12]): 76%

COc1cccc(Nc2ncc(C(=O)N3CCOCC3)c3c(C)c[nH]c23)c1
EC50 (Cannabinoid receptor 1 [2]): 25.1 µM
Efficacy (Cannabinoid receptor 1 [9]): 69%
EC50 (Cannabinoid receptor 2 [10]): 0.048 µM
Activity (Cannabinoid receptor 1 [13]): inactive
Efficacy (Cannabinoid receptor 2 [12]): 83%

Cn1ccc2c(Nc3cccc(Cl)c3)ncc(Br)c21
Activity [14]: < 10%
concentration at 3 h [15]: 14.7 µM
Activity [16]: < 10%
Activity [17]: < 10%
Activity [18]: < 10%
Activity [19]: < 10%
Activity (Rattus norvegicus [20]): Toxic
Activity [21]: < 10%
Activity [22]: < 10%
Activity [23]: < 10%
concentration at 1 h [24]: 10.9 µM
EC50 (Cannabinoid receptor 1 [25]): 2.51 µM
Activity [26]: < 10%
Activity [27]: < 10%
Activity [28]: < 10%
Activity [29]: < 10%
Activity [30]: < 10%
Activity [31]: < 10%
Activity [32]: < 10%
Activity [33]: 25%
Activity [34]: < 10%
Activity [35]: < 10%
Activity [36]: < 10%
Activity [37]: < 10%
Activity [38]: < 10%
Activity [39]: < 10%
Activity [40]: < 10%
Activity [41]: < 10%
Efficacy [42]: 59%
Activity [43]: < 10%
Activity (Rattus norvegicus [44]): Non-toxic

CS(=O)(=O)c1ccc(C2=C(c3ccccc3)C(=O)OC2)cc1 [ROFECOXIB]
Ratio [5]: 74
Activity (Rattus norvegicus [45]): Active

Cc1c[nH]c2c(Nc3cccc(Cl)c3)ncc(C(=O)N3CCCCC3)c12
EC50 (Cannabinoid receptor 1 [2]): 4 µM
Efficacy (Cannabinoid receptor 1 [9]): 32%
EC50 (Cannabinoid receptor 2 [10]): 0.014 µM
Efficacy (Cannabinoid receptor 2 [12]): 73%

Cc1c[nH]c2c(Nc3cccc(Cl)c3)ncc(C(=O)N3CCC3)c12
EC50 (Cannabinoid receptor 1 [2]): > 30 µM
EC50 (Cannabinoid receptor 2 [10]): 0.504 µM
Efficacy (Cannabinoid receptor 2 [12]): 66%

Cc1c[nH]c2c(Nc3cccc(Cl)c3)ncc(C(=O)NCc3ccc(F)cc3)c12
EC50 (Cannabinoid receptor 1 [2]): > 30 µM
EC50 (Cannabinoid receptor 2 [10]): 0.145 µM
Efficacy (Cannabinoid receptor 2 [12]): 58%
